{"source": "patent US20020198510A1", "about": "“Method for nasal application of a medicinal substance” (priority 2001, published 2002)", "set-up": "species or system chinchillas", "conditions": "in vivo", "procedure": "To show the distribution of liquid administered through the nose, Evans Blue Dye (0.3%) was administered through a micropipette tip into the nose of mice and chinchillas at various doses, at various levels of sedation or anesthesia, and with the animals in various positions."}
{"smiles": "Cc1cc(-c2ccc(/N=N/c3ccc4c(S(=O)(=O)[O-])cc(S(=O)(=O)[O-])c(N)c4c3O)c(C)c2)ccc1/N=N/c1ccc2c(S(=O)(=O)[O-])cc(S(=O)(=O)[O-])c(N)c2c1O.[Na+].[Na+].[Na+].[Na+]", "note": "[Dye, Evans Blue Dye]", "values": [{"measurement": "Dye retention in nasal passages and sinuses by alertness", "result": "more dye is retained in the nasal passages and sinuses when administered to an alert chinchilla"}, {"measurement": "Dye retention in nasal passages and sinuses by position", "result": "more dye is retained in the nasal passages and sinuses in the chinchilla, when the dye is administered in the prone position than when administered in the supine position"}]}
